For 30 compounds, IC50 results are on record in patent publication US11827628B2, “Compositions and methods for inhibition of the JAK pathway” (Rigel Pharmaceuticals, Inc., priority 2005, dated 2023).

Like-named read-outs stand apart in the source and are kept apart here.

Experiment [1] relates to IL-4 stimulated expression of CD23 in human Ramos B cells (JAK-1 and JAK-3). The experiment is described as follows: Assay for Ramos B-Cell Line Stimulated with IL-4 (CD23 upregulation, FACS). The format is cell-based. The following applies: Ramos B cells stimulated with IL-4, CD23 expression by FACS, read-out: IC50, Example 41. In short, it runs like this:
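Human Ramos B cells (5×10^4 per point, RPMI 5% serum) pre-incubated 1 h at 37 °C with compound or DMSO, then stimulated with IL-4 at 50 units/mL final for 20-24 h. CD23 upregulation measured by anti-CD23-PE staining and flow cytometry; IC50 derived.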
Background: Flow cytometry measures light scatter and fluorescence of single cells or particles in a stream.

Another experiment has as its system Primary human T-cells. The experiment is described as follows: Primary Human T-Cell Proliferation Assay Stimulated with IL-2 (CellTiter-Glo). The experiment is classed as cell-based. The following applies: primary human T-cells stimulated with IL-2, proliferation, read-out: IC50, Example 42. Summed up: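 IC50 derived from CellTiter-Glo ATP signal after 72 hours of IL-2-driven proliferation at 37° C. Cells: primary human T-cells from blood, stimulated beforehand 3-4 days on anti-CD3/anti-CD28 with IL-2, then rested from IL-2 before compound exposure in duplicate; IL-2-free wells served as unstimulated control.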
In general terms: ATP-based viability assays read luminescence as a measure of living cells.

Broadly, the IC50 is the concentration that inhibits the measured activity by half. `COc1ccc(Nc2nc(Nc3ccc(Cl)c(S(N)(=O)=O)c3)ncc2F)cc1Cl` [VI-2, N2-(3-Aminosulfonyl-4-chlorophenyl)-N4-(3-chloro-4-methoxyphenyl)-5-fluoro-2,4-pyrimidinediamine]: the IC50 in experiment [1] (Homo sapiens, Ramos) came out at 89.2 nM; with Primary human T-cells (Homo sapiens, T-cell), 3570 nM.
For the compound `NS(=O)(=O)c1cc(Nc2ncc(F)c(Nc3ccc(Cl)c(Cl)c3)n2)ccc1Cl` [VI-3, N2-(3-Aminosulfonyl-4-chlorophenyl)-N4-(3,4-dichlorophenyl)-5-fluoro-2,4-pyrimidinediamine], the IC50 in experiment [1] (Homo sapiens, Ramos) was 206 nM; in the experiment with Primary human T-cells (Homo sapiens, T-cell), 8790 nM.
With `COc1ccc(Nc2nc(Nc3ccc(C)c(S(N)(=O)=O)c3)ncc2F)cc1Cl` [VI-4, N2-(3-Aminosulfonyl-4-methylphenyl)-N4-(3-chloro-4-methoxyphenyl)-5-fluoro-2,4-pyrimidinediamine], the IC50 in experiment [1] (Homo sapiens, Ramos) came out at 21.1 nM; in the experiment on Primary human T-cells (Homo sapiens, T-cell) it was 231 nM.
Taken in the same sequence, the figures for `COc1ccc(Nc2nc(Nc3ccc(Cl)c(S(=O)(=O)NC(C)=O)c3)ncc2F)cc1Cl` [VI-12, N2-[3-(N-Acetyl)aminosulfonyl-4-chlorophenyl]-N4-(3-chloro-4-methoxyphenyl)-5-fluoro-2,4-pyrimidinediamine] were 146 nM and 1310 nM.
The matching figures for `Cc1cc(Nc2ncc(F)c(Nc3ccc(OC(F)(F)F)c(Cl)c3)n2)cc(S(N)(=O)=O)c1F` [VI-16, N2-(3-Aminosulfonyl-4-fluoro-5-methylphenyl)-N4-(3-chloro-4-trifluoromethoxyphenyl)-5-fluoro-2,4-pyrimidinediamine]: 259 nM and 3910 nM.
Turning to `COc1ccc(Nc2nc(Nc3ccc(OC)c(S(N)(=O)=O)c3)ncc2F)cc1Cl` [VI-29, N2-(3-Aminosulfonyl-4-methoxyphenyl)-N4-(3-chloro-4-methoxyphenyl)-5-fluoro-2,4-pyrimidinediamine], the IC50 in experiment [1] (Homo sapiens, Ramos) stood at 49.8 nM; in the experiment on Primary human T-cells (Homo sapiens, T-cell), 362 nM.
For the compound `COc1ccc(Nc2nc(Nc3cc(C)c(OC)c(S(N)(=O)=O)c3)ncc2F)cc1Cl` [VI-30, N2-(3-Aminosulfonyl-4-methoxy-5-methylphenyl)-N4-(3-chloro-4-methoxyphenyl)-5-fluoro-2,4-pyrimidinediamine], the IC50 in experiment [1] (Homo sapiens, Ramos) amounted to 13.2 nM; in the experiment with Primary human T-cells (Homo sapiens, T-cell) it was 170 nM.
For `Cc1ccc(Nc2ncc(F)c(Nc3ccc(OC(F)(F)F)cc3)n2)cc1S(N)(=O)=O` [VI-32, N2-(3-aminosulfonyl-4-methylphenyl)-5-fluoro-N4-(4-trofluoromethoxyphenyl)-2,4-pyrimidinediamine], the IC50 was 333 nM in experiment [1] and 1660 nM with Primary human T-cells.
Turning to `NS(=O)(=O)c1cccc(Nc2ncc(F)c(Nc3ccc(OC(F)(F)F)cc3)n2)c1` [VI-33, N2-(3-aminosulfonylphenyl)-5-fluoro-N4-(4-trofluoromethoxyphenyl)-2,4-pyrimidinediamine], the figures for the IC50 (in experiment [1]; in the experiment on Primary human T-cells) were 272 nM and 660 nM, respectively.
Turning to `CC(C)(C)c1ccc(Nc2nc(Nc3cccc(S(N)(=O)=O)c3)ncc2F)cc1` [VI-35, N2-(3-Aminosulfonylphenyl)-N4-(4-tert-butylphenyl)-5-fluoro-2,4-pyrimidinediamine], the IC50 in experiment [1] (Homo sapiens, Ramos) is 158 nM; with Primary human T-cells (Homo sapiens, T-cell), 1260 nM.
Turning to `Cc1ccc(Nc2ncc(F)c(Nc3ccc(C(C)(C)C)cc3)n2)cc1S(N)(=O)=O` [VI-36, N2-(3-Aminosulfonyl-4-methylphenyl)-N4-(4-tert-butylphenyl)-5-fluoro-2,4-pyrimidinediamine], the IC50 in experiment [1] (Homo sapiens, Ramos) was 374 nM; in the experiment on Primary human T-cells (Homo sapiens, T-cell) it was 4500 nM.
For the compound `Cc1ccc(Nc2ncc(F)c(Nc3ccc(Cl)c(C(F)(F)F)c3)n2)cc1S(N)(=O)=O` [VI-39, N2-(3-Aminosulfonyl-4-methyl-phenyl)-N4-(4-chloro-3-trifluoromethylphenyl)-5-fluoro-2,4-pyrimidinediamine], the IC50 in experiment [1] (Homo sapiens, Ramos) came out at 401 nM; in the experiment on Primary human T-cells (Homo sapiens, T-cell), 3140 nM.
For the compound `NS(=O)(=O)c1cc(Nc2ncc(F)c(Nc3ccc(C(F)(F)F)cc3)n2)ccc1Cl` [VI-41, N2-(3-Aminosulfonyl-4-chlorophenyl)-5-fluoro-N4-(4-trifluorophenyl)-2,4-pyrimidinediamine], the IC50 in experiment [1] amounted to 342 nM; in the experiment with Primary human T-cells it was 6240 nM.
In the case of `NS(=O)(=O)c1cc(Nc2ncc(F)c(Nc3ccc(OC(F)(F)F)cc3)n2)ccc1Cl` [VI-42, N2-(3-Aminosulfonyl-4-chlorophenyl)-5-fluoro-N4-(4-trifluoromethoxyphenyl)-2,4-pyrimidinediamine], the IC50 was found to be 452 nM in experiment [1] (Homo sapiens, Ramos) and 6170 nM in the experiment on Primary human T-cells (Homo sapiens, T-cell).
`CC(C)(C)c1ccc(Nc2nc(Nc3ccc(Cl)c(S(N)(=O)=O)c3)ncc2F)cc1` [VI-43, N2-(3-Aminosulfonyl-4-chlorophenyl)-N4-(4-tert-butylphenyl)-5-fluoro-2,4-pyrimidinediamine]: the IC50 is 739 nM in experiment [1] (Homo sapiens, Ramos) and 6140 nM with Primary human T-cells (Homo sapiens, T-cell).
For `NS(=O)(=O)c1cc(Nc2ncc(F)c(Nc3ccc(C(F)(F)F)c(Cl)c3)n2)ccc1Cl` [VI-44, N2-(3-Aminosulfonyl-4-chlorophenyl)-N4-(3-chloro-4-trifluoromethyl-phenyl)-5-fluoro-2,4-pyrimidinediamine], the IC50 in experiment [1] (Homo sapiens, Ramos) came to 429 nM; in the experiment on Primary human T-cells (Homo sapiens, T-cell), 7310 nM.
With `Cc1ccc(Nc2ncc(F)c(Nc3ccc(OCC(F)(F)F)cc3)n2)cc1S(N)(=O)=O` [VI-46, N2-(3-Aminosulfonyl-4-methylphenyl)-5-fluoro-N4-(4-trifluoromethylmethyleneoxyphenyl)-2,4-pyrimidinediamine], the IC50 in experiment [1] amounted to 144 nM; in the experiment on Primary human T-cells it was 1260 nM.
Taken in the same sequence, the figures for `NS(=O)(=O)c1cc(Nc2ncc(F)c(Nc3ccc(OCC(F)(F)F)cc3)n2)ccc1Cl` [VI-48, N2-(3-Aminosulfonyl-4-chlorophenyl)-5-fluoro-N4-(4-trifluoromethylmethyleneoxyphenyl)-2,4-pyrimidinediamine] were 315 nM and 2240 nM.
For `C#CCOc1cccc(Nc2nc(Nc3ccc(C)c(S(N)(=O)=O)c3)ncc2F)c1` [VI-57, N2-(3-Aminosulfonyl-4-methylphenyl)-5-fluoro-N4-[3-(prop-2-ynyloxy)phenyl]-2,4-pyrimidinediamine], the IC50 in experiment [1] (Homo sapiens, Ramos) was 202 nM; in the experiment on Primary human T-cells (Homo sapiens, T-cell), 1180 nM.
The matching figures for `C#CCOc1ccc(Nc2nc(Nc3ccc(C)c(S(N)(=O)=O)c3)ncc2F)cc1C` [VI-58, N2-(3-Aminosulfonyl-4-methylphenyl)-5-fluoro-N4-[3-methyl-4-(prop-2-ynyloxy)phenyl]-2,4-pyrimidinediamine]: 164 nM and 724 nM.
For the compound `C#CCN(CC#C)c1ccc(Nc2nc(Nc3ccc(C)c(S(N)(=O)=O)c3)ncc2F)cc1` [VI-67, N2-(3-Aminosulfonyl-4-methylphenyl)-N4-{4-[bis(prop-2-ynyl)amino]phenyl}-5-fluoro-2,4-pyrimidinediamine], the IC50 was 147 nM in experiment [1] (Homo sapiens, Ramos) and 718 nM in the experiment with Primary human T-cells (Homo sapiens, T-cell).
Taken in the same sequence, the figures for `C#CCOC(=O)NCc1ccc(Nc2nc(Nc3ccc(C)c(S(N)(=O)=O)c3)ncc2F)cc1` [VI-73, N2-(3-Aminosulfonyl-4-methylphenyl)-5-fluoro-N4-{4-[(prop-2-ynyloxy)carbonylaminomethyl]phenyl}-2,4-pyrimidinediamine] were 251 nM and 2010 nM.
As for `C#CCNS(=O)(=O)c1ccc(Nc2nc(Nc3cccc(S(N)(=O)=O)c3)ncc2F)cc1` [VI-75, N2-(3-Aminosulfonylphenyl)-5-fluoro-N4-[4-(prop-2-ynylaminosulfonyl)phenyl]-2,4-pyrimidinediamine], the IC50 in experiment [1] (Homo sapiens, Ramos) came to 904 nM; with Primary human T-cells (Homo sapiens, T-cell), 929 nM.
As to `C#CCNS(=O)(=O)c1ccc(Nc2nc(Nc3ccc(C)c(S(N)(=O)=O)c3)ncc2F)cc1` [VI-76, N2-(3-Aminosulfonyl-4-methylphenyl)-5-fluoro-N4-[4-(prop-2-ynylaminosulfonyl)phenyl]-2,4-pyrimidinediamine], the IC50 was 549 nM in experiment [1] (Homo sapiens, Ramos) and 783 nM in the experiment on Primary human T-cells (Homo sapiens, T-cell).
Take `NS(=O)(=O)c1ccc(Nc2ncc(F)c(Nc3ccc(CCCF)cc3)n2)cc1` [VI-82, N2-(4-Aminosulfonylphenyl)-5-fluoro-N4-[4-(3-fluoropropyl)phenyl]-2,4-pyrimidinediamine]: the IC50 turned out to be 212 nM in experiment [1] (Homo sapiens, Ramos) and 1630 nM in the experiment with Primary human T-cells (Homo sapiens, T-cell).
Turning to `Cc1ccc(Nc2ncc(F)c(Nc3ccc(CCCO)cc3)n2)cc1S(N)(=O)=O` [VI-87, N2-(3-Aminosulfonyl-4-methylphenyl)-5-fluoro-N4-[4-(3-hydroxypropyl)phenyl]-2,4-pyrimidinediamine], the IC50 in experiment [1] (Homo sapiens, Ramos) worked out at 541 nM; in the experiment with Primary human T-cells (Homo sapiens, T-cell), 1240 nM.
For the compound `Cc1ccc(Nc2ncc(F)c(Nc3ccc(CCCCO)cc3)n2)cc1S(N)(=O)=O` [VI-90, N2-(3-Aminosulfonyl-4-methylphenyl)-5-fluoro-N4-[4-(4-hydroxybutyl)phenyl]-2,4-pyrimidinediamine], the IC50 in experiment [1] (Homo sapiens, Ramos) turned out to be 1080 nM; with Primary human T-cells (Homo sapiens, T-cell) it was 3970 nM.
For `NS(=O)(=O)c1ccc(Nc2ncc(F)c(Nc3ccc(CCCCF)cc3)n2)cc1` [VI-91, N2-(4-Aminosulfonylphenyl)-5-fluoro-N4-[4-(4-fluorobutyl)phenyl]-2,4-pyrimidinediamine], the IC50 in experiment [1] (Homo sapiens, Ramos) was determined as 221 nM; in the experiment with Primary human T-cells (Homo sapiens, T-cell) it was 1230 nM.
As to `Cc1ccc(Nc2ncc(F)c(Nc3ccc(CCCCF)cc3)n2)cc1S(N)(=O)=O` [VI-93, N2-(3-Aminosulfonyl-4-methylphenyl)-5-fluoro-N4-[4-(4-fluorobutyl)phenyl]-2,4-pyrimidinediamine], the IC50 in experiment [1] (Homo sapiens, Ramos) is 110 nM; in the experiment on Primary human T-cells (Homo sapiens, T-cell), 560 nM.
The matching figures for `N#Cc1cc(Nc2nc(Nc3cccc(S(N)(=O)=O)c3)ncc2F)ccc1F` [VI-98, N2-(3-Aminosulfonylphenyl)-N4-(3-cyano-4-fluorophenyl)-5-fluoro-2,4-pyrimidinediamine]: 136 nM and 986 nM.
